Source: US11337949B2, “Thermostable formulation of biologically active substances” (CAPRETTO EHF., priority 2016, dated 2022)

Tests used:
[1] = Thermostability of aqueous lipid solutions; format: physicochemical; conditions: exposed to temperature below 10° C. or above 25° C.
Text: EP-0351651 describes the use of PEG-C8/C10-glycerides as an absorption promoter for insulin. Especially for orally and buccally administered insulin. From the disclosure it appears that an increase in concentration of PEG-C8/C10-glycerides results in an increase in absorption. With respect to a nasal composition the composition described has a relatively high concentration of absorption enhancer, namely about 50% w/w. WO2003070280 (Absorption enhancing agent) describes the use of PEG-C8/C10-glycerides as absorption promoter for e.g. sumatriptan, in most preferred concentrations of 0.1-10%. Here, the function of PEG-C8/C10-glycerides should not promote absorption, since that will remove the active ingredient from the surface such as the mucosal surface, and into the systemic circulation. However, PEG-C8/C10 is able to act as a thermostabilizer for formulations containing lipids that are insoluble in water.

Staphylococcus aureus = conditions: cited from earlier work
Staphylococcus epidermis = conditions: cited from earlier work
Streptococci A = conditions: cited from earlier work
Streptococci pyogenes = conditions: cited from earlier work
Haemophilus influenzae = conditions: cited from earlier work
Streptococcus D = conditions: cited from earlier work
Streptococcus mutans = conditions: cited from earlier work
Streptococcus pneumoniae = conditions: cited from earlier work
Corynebacteria sp. = conditions: cited from earlier work
Nococardia asteroides = conditions: cited from earlier work
Micrococcus sp. = conditions: cited from earlier work
Pseudomonas aeruginosa = conditions: cited from earlier work
Listeria monocytogenes = conditions: cited from earlier work
Lactobacillus jensenii = conditions: cited from earlier work
Chlamydia trachomatis = conditions: cited from earlier work
Neisseria gonorrhoeae = conditions: cited from earlier work
Helicobacter pylori = conditions: cited from earlier work
Campylobacter jejuni = conditions: cited from earlier work
Candida albicans (yeast) = conditions: cited from earlier work
[2] = tested on: Herpes virus type 1 (HSV-1); conditions: cited from earlier work
[3] = tested on: Herpes virus type 2 (HSV-2); conditions: cited from earlier work
[4] = tested on: Respiratory syncytial virus (RSV); conditions: cited from earlier work
Influenza A virus = conditions: cited from earlier work
[5] = tested on: Parainfluenza virus type 2; conditions: cited from earlier work

CCCCCCCCCC(=O)OCC(O)CO (stereo not shown) [monocaprin]
precipitation in aqueous formulations [1]: will easily precipitate | bactericidal effect (Staphylococcus aureus): bacteriocid | bactericidal effect (Staphylococcus epidermis): bacteriocid | bactericidal effect (Streptococci A): bacteriocid | bactericidal effect (Streptococci pyogenes): bacteriocid | bactericidal effect (Haemophilus influenzae): bacteriocid | effectiveness against microbe (Streptococcus D): effective | effectiveness against microbe (Streptococcus mutans): effective | effectiveness against microbe (Streptococcus pneumoniae): effective | effectiveness against microbe (Corynebacteria sp.): effective | effectiveness against microbe (Nococardia asteroides): effective | effectiveness against microbe (Micrococcus sp.): effective | effectiveness against microbe (Pseudomonas aeruginosa): effective | effectiveness against microbe (Listeria monocytogenes): effective | effectiveness against microbe (Lactobacillus jensenii): effective | effectiveness against microbe (Chlamydia trachomatis): effective | effectiveness against microbe (Neisseria gonorrhoeae): effective | effectiveness against microbe (Helicobacter pylori): effective | effectiveness against microbe (Campylobacter jejuni): effective | effectiveness against microbe (Candida albicans (yeast)): effective | effectiveness against virus [2]: effective | effectiveness against virus [3]: effective | effectiveness against virus [4]: effective | effectiveness against virus (Influenza A virus): effective | effectiveness against virus [5]: effective
